# Measured values as given in BindingDB's records for doi:10.1021/jm050520a (Schering-Plough Research Institute, 2006).
# Numbered stars: 1 amine (or outer) side, 2 acyl side, 3 side chain; on linkers, the order of the positions; unused ones are H or OH. Square brackets hold non-standard residues; d marks the D form. Peptide text beside a SMILES is read from it. * marks the point of attachment. X1 = CCCC(N[*:1])C(=O)C(=O)[*:2]; Tic = O=C(O)[C@@H]1Cc2ccccc2CN1; Chg = N[C@H](C(=O)O)C1CCCCC1; Phg = N[C@H](C(=O)O)c1ccccc1; Boc = CC(C)(C)OC(=O)*
# Biological target: Genome polyprotein (Hepatitis C virus genotype 1a (isolate H77), UniProt P27958)
# Assay: Continuous Spectrophotometric Assay
# Settings: pH 6.5; 30 °C
# Procedure: Proteolytic cleavage of the ester linkage between the Nva (L-norvaline) and the chromophore (PAP) was monitored for change in absorbance at 370 nm. Initial velocities were determined using linear regression and kinetic constants were obtained by fitting the data to the Michaelis-Menten equation.
# Sequence of Genome polyprotein (P27958 1027-1657 limits assumed): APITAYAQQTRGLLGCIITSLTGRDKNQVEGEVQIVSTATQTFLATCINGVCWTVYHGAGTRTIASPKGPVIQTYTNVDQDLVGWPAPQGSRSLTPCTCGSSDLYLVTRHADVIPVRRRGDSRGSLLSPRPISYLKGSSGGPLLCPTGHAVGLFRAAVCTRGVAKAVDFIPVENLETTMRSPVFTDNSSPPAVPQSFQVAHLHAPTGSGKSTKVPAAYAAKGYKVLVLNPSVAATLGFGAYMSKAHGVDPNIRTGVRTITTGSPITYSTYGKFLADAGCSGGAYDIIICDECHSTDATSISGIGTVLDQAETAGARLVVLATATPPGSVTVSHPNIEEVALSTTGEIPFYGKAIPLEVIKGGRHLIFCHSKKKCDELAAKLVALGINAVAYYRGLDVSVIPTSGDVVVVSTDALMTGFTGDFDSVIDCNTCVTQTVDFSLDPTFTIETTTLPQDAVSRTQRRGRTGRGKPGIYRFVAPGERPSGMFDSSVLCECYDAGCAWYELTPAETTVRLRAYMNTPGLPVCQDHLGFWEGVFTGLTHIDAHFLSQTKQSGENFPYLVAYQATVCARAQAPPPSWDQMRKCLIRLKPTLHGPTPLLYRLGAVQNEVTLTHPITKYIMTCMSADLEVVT
compound,measurement,value
"CCCC(NC(=O)[C@@H]1Cc2ccccc2CN1C(=O)[C@@H](NC(=O)OC(C)(C)C)C1CCCCC1)C(=O)C(=O)NCC(=O)N[C@H](C(=O)N(C)C)c1ccccc1 (stereo partly drawn) [tert-butyl N-[(1S)-1-cyclohexyl-2-[(3S)-3-({1-[({[(S)-(dimethylcarbamoyl)(phenyl)methyl]carbamoyl}methyl)carbamoyl]-1-oxopentan-2-yl}carbamoyl)-1,2,3,4-tetrahydroisoquinolin-2-yl]-2-oxoethyl]carbamate] (Boc-[Chg][Tic][X1]G[Phg]-NMe2)",Ki,1200 nM
